Common to all, as to format: functional
Experiment [1] in a line: Antiplatelet activity in Mus musculus Laca (mouse) platelet assessed as bleeding time at 7.5 mg/kg, po after 1 hr by tail transaction bleeding test (reference value: 3.2 +/- 0.218 min).
Experiment [2] can be described thus: Antiplatelet activity in Mus musculus Laca (mouse) platelet assessed as bleeding time at 15 mg/kg, po after 1 hr by tail transaction bleeding test (reference value: 3.2 +/- 0.218 min).
Experiment [3] can be described thus: Antiplatelet activity in Mus musculus Laca (mouse) platelet assessed as bleeding time at 60 mg/kg, po after 1 hr by tail transaction bleeding test (reference value: 3.2 +/- 0.218 min).
Experiment [4] is described as follows: Antiplatelet activity in Mus musculus Laca (mouse) platelet assessed as bleeding time at 30 mg/kg, po after 1 hr by tail transaction bleeding test (reference value: 3.2 +/- 0.218 min).
Experiment [5] is described as follows: Antiplatelet activity in Mus musculus Laca (mouse) platelet assessed as bleeding time at 15 mg/kg, po after 1 hr by tail transaction bleeding test relative to aspirin.

Experimental findings from ChEMBL document CHEMBL3045234, “Synthesis of new pyridazinone derivatives as platelet aggregation inhibitors” (2010) are described below.

Regarding `COc1cc(CNc2ccc(C3=NNC(=O)CC3)cc2)ccc1O`, the Time in experiment [1] is 4.1 min; in experiment [2], 5.2 min; in experiment [3], 7.3 min; in experiment [4], 6.1 min.

Regarding `O=C1CCC(c2ccc(NCc3ccncc3)cc2)=NN1`, the Time turned out to be 4.3 min in experiment [1], 5.3 min in experiment [2], 7 min in experiment [3] and 6.2 min in experiment [4].

As for `O=C1CCC(c2ccc(NCc3ccc(F)cc3)cc2)=NN1`, the Time in experiment [1] was found to be 3.8 min; in experiment [2], 4.9 min; in experiment [3], 7 min; in experiment [4], 6.2 min.

As for `O=C1CCC(c2ccc(NCc3cccnc3)cc2)=NN1`, the Time was 4.1 min in experiment [1], 5.5 min in experiment [2], 6.6 min in experiment [3] and 6.2 min in experiment [4].

`COc1cc(CNc2ccc(C3=NNC(=O)CC3)cc2)cc(OC)c1OC`: the Time in experiment [1] is recorded as 4.4 min; in experiment [2], 5.2 min; in experiment [3], 6.5 min; in experiment [4], 6.1 min.

As for `O=C1CCC(c2ccc(NCc3c[nH]c4ccccc34)cc2)=NN1`, the “fold change (FC)” value in experiment [5] is listed as over 2. Also, the Time amounted to 5.5 min in experiment [1], 8.3 min in experiment [2], 9.7 min in experiment [3] and 9.2 min in experiment [4].

As to `CC(=O)Oc1ccccc1C(=O)O` [ASPIRIN], the Time in experiment [1] came to 4.2 min; in experiment [2], 5.3 min; in experiment [3], 6.6 min; in experiment [4], 6.1 min.

`O=C1CCC(c2ccc(NCc3ccccc3O)cc2)=NN1`: the Time in experiment [1] turned out to be 4.4 min; in experiment [2], 7.4 min; in experiment [3], 9.2 min; in experiment [4] it was 8.5 min.

Consider `COc1ccc(CNc2ccc(C3=NNC(=O)CC3)cc2)cc1OC`, for which the Time is 4.2 min in experiment [1], 5.6 min in experiment [2], 7.1 min in experiment [3] and 6.5 min in experiment [4].
